Experimental data taken from patent US8999983B2, “Modulators of Hec1 activity and methods therefor” (Taivex Therapeutics Corporation, priority 2011, dated 2015).
Read-outs that look alike come from different tables or passages of the source.

What was measured:
Format in all cases: cell-based
Hela = test: Antiproliferation assay (MTS), HeLa cells; conditions: Homo sapiens, 96 h
Experimental: (§1) Cells were grown at 37° C. in a humidified atmosphere consisting of 5% CO2 and 95% air.
(§2) Antiproliferation Assays: Cells were plated in a 96-well culture plate with 2000-8000 cells per well. The compounds were prepared in DMSO and used to treat cells in a final concentration of less than 1% DMSO. Compound treatment started after overnight incubation of cells (T0). […] Compound was added to the plate in triplicate wells, and the plates were then incubated for 96 hours. DMSO (compound diluent) was also included and added to the plate in control wells. Cell viability was then determined by MTS assay using the CellTiter 96® aqueous non-radioactive cell proliferation assay system (Promega, Madison, Wis. 53711 USA). A plate reader (Vmax, Molecular Devices, Sunnyvale Calif. 94089 USA) was used to determine the optical densities, and the results were used to deduce concentration-response curves. […] The results were analyzed using linear regression software (GraphPad Prism 5; GraphPad Software Inc. La Jolla Calif. 92037 USA).

MDA-MB-468 = test: Antiproliferation assay (MTS), MDA-MB-468 cells; conditions: Homo sapiens, MDA-MB-468, 96 h
Experimental: as §1, §2

MDA-MB-231 = test: Antiproliferation assay (MTS), MDA-MB-231 cells; conditions: Homo sapiens, MDA-MB-231, 96 h
Experimental: as §1, §2

K562 = test: Antiproliferation assay (MTS), K562 cells; conditions: Homo sapiens, K562, 96 h
Experimental: as §1, §2

[1] = Table 1, read-out: Antiproliferative IC50 Hela
[2] = Table 1, read-out: Antiproliferative IC50 MDA-MB-468
[3] = read-out: Antiproliferative IC50 MDA-MB-231, Table 1
[4] = Table 1, read-out: Antiproliferative IC50 K562

Row | Structure (SMILES) | IC50 (Hela; [1]) [nM] | IC50 (MDA-MB-468; [2]) [nM] | IC50 (MDA-MB-231; [3]) [nM] | IC50 (K562; [4]) [nM] | IC50 (Hela; Table 2, read-out: Antiproliferative IC50 Hela) [nM] | IC50 (MDA-MB-468; Table 2, read-out: Antiproliferative IC50 MDA-MB-468) [nM] | IC50 (MDA-MB-231; read-out: Antiproliferative IC50 MDA-MB-231, Table 2) [nM] | IC50 (K562; Table 2, read-out: Antiproliferative IC50 K562) [nM]
1 | COCCOc1cnc([S+]([O-])c2cc(C)c(-c3csc(NC(=O)c4ccncc4)n3)c(C)c2)cn1 (stereo not drawn) [Compound 32, N-(4-{4-(5-(2-Methoxyethoxy)pyrazin-2-ylsulfinyl)-2,6-dimethylphenyl}thiazol-2-yl)isonicotinamide] | 1120 | 1280 | 1700 | 734 | – | – | – | –
2 | Cc1cc(Oc2ccc([N+](=O)[O-])nc2)cc(C)c1-c1csc(NC(=O)c2ccncc2)n1 [Compound 24, N-{4-(2,6-Dimethyl-4-(6-nitropyridin-3-yloxy)phenyl)thiazol-2-yl}isonicotinamide] | 73.8 | 158 | 181 | 148 | – | – | – | –
3 | COc1ccc(Oc2cc(C)c(-c3csc(NC(=O)c4ccncc4)n3)c(C)c2)cc1 [Compound 48, N-(4-(4-(4-Methoxyphenoxy)-2,6-dimethylphenyl)thiazol-2-yl)isonicotinamide] | 48.6 | 37 | 32 | 34.9 | – | – | – | –
4 | COCCOc1cnc(S(=O)(=O)c2cc(C)c(-c3csc(NC(=O)c4ccncc4)n3)c(C)c2)cn1 [Compound 31, N-(4-{4-(5-(2-Methoxyethoxy)pyrazin-2-ylsulfonyl)-2,6-dimethylphenyl}thiazol-2-yl)isonicotinamide] | 957 | 1000 | 1120 | 635 | – | – | – | –
5 | Cc1cc(Sc2ccc(Cl)cc2)cc(C)c1-c1csc(NC(=O)c2ccncc2)n1 [Compound 40, N-{4-(4-(4-Chlorophenylsulfanyl)-2,6-dimethylphenyl)thiazol-2-yl}isonicotinamide] | 585 | 124 | 200 | 93.5 | – | – | – | –
6 | COc1ccc(Oc2cc(C)c(-c3csc(NC(=O)c4ccncc4)n3)c(C)c2)cn1 [Compound 9, N-{4-(4-(6-Methoxypyridin-3-yloxy)-2,6-dimethylphenyl)thiazol-2-yl}isonicotinamide] | 81.6 | 48.4 | 65.8 | 39.1 | – | – | – | –
7 | COc1cnc(Oc2cc(C)c(-c3csc(NC(=O)c4ccncc4)n3)c(C)c2)nc1 [Compound 8, N-{4-(4-(5-Methoxypyrimidin-2-yloxy)-2,6-dimethylphenyl)thiazol-2-yl}isonicotinamide] | 130 | 85.4 | 121 | 71.8 | – | – | – | –
8 | Cc1cc(Sc2ccc(Br)cc2)cc(C)c1-c1csc(NC(=O)c2ccncc2)n1 [Compound 37, N-{4-(4-(4-Bromophenylsulfanyl)-2,6-dimethylphenyl)thiazol-2-yl}isonicotinamide] | 243 | 226 | 148 | 62.5 | – | – | – | –
9 | Cc1cc(C)c(-c2csc(NC(=O)Cc3ccncc3)n2)c(C)c1 [II-93, N-(4-Mesitylthiazol-2-yl)-2-(pyridin-4-yl)acetamide] | – | – | – | – | 620 | 300 | 310 | 380
10 | Cc1cc(Sc2ccccc2Cl)cc(C)c1-c1csc(NC(=O)c2ccncc2)n1 [Compound 39, N-{4-(4-(2-Chlorophenylsulfanyl)-2,6-dimethylphenyl)thiazol-2-yl}isonicotinamide] | 211 | 73.9 | 55.9 | 36.2 | – | – | – | –

The remaining molecules from weak to strong by IC50 (Hela; [1]), led by results:

Row | IC50 (Hela; [1]) [nM] | IC50 (MDA-MB-468; [2]) [nM] | IC50 (MDA-MB-231; [3]) [nM] | IC50 (K562; [4]) [nM] | IC50 (Hela; Table 2, read-out: Antiproliferative IC50 Hela) [nM] | IC50 (MDA-MB-468; Table 2, read-out: Antiproliferative IC50 MDA-MB-468) [nM] | IC50 (MDA-MB-231; read-out: Antiproliferative IC50 MDA-MB-231, Table 2) [nM] | IC50 (K562; Table 2, read-out: Antiproliferative IC50 K562) [nM] | Structure (SMILES)
11 | 40.6 | 49.4 | 40.8 | 43.7 | – | – | – | – | COc1ccc(Oc2cc(C)c(-c3csc(NC(=O)c4ccncc4)n3)c(C)c2)nc1 [Compound 18, N-(4-{4-((5-Methoxypyridin-2-yl)oxy)-2,6-dimethylphenyl}thiazol-2-yl)isonicotinamide]
12 | 33.4 | 52.4 | 47.4 | 38.2 | – | – | – | – | Cc1cc(Sc2cnccn2)cc(C)c1-c1csc(NC(=O)c2ccncc2)n1 [Compound 11, N-{4-(2,6-Dimethyl-4-(pyrazin-2-ylthio)phenyl)thiazol-2-yl}isonicotinamide]
13 | 32.8 | 74.5 | 124 | 59.2 | – | – | – | – | Cc1cc(Sc2cnc(OCCN(C)C)cn2)cc(C)c1-c1csc(NC(=O)c2ccncc2)n1 [Compound 28, N-(4-(4-{5-(2-(Dimethylamino)ethoxy)pyrazin-2-ylthio}-2,6-dimethylphenyl)thiazol-2-yl)isonicotinamide]
14 | 26.9 | 27 | 28.2 | 23.4 | – | – | – | – | COc1ccc(Sc2cc(C)c(-c3csc(NC(=O)c4ccncc4)n3)c(Cl)c2)cc1 [Compound 3, N-{4-(2-Chloro-4-(4-methoxyphenylsulfanyl)-6-methylphenyl)thiazol-2-yl}isonicotinamide]
15 | 8.3 | 16.6 | 21.9 | 11.7 | – | – | – | – | COCCNc1ccc(Oc2cc(C)c(-c3csc(NC(=O)c4ccncc4)n3)c(C)c2)cn1 [Compound 29, N-(4-{4-(6-(2-Methoxyethylamino)pyridin-3-yloxy)-2,6-dimethylphenyl}thiazol-2-yl)isonicotinamide]
